# Results published in patent US11850313B2, “Method and compositions for protecting tissue” (The London Health Sciences Centre Research Inc., priority 2019, dated 2023).
# Tests used:
# DCD porcine kidneys [1] = assay: Ex vivo perfusion of DCD porcine kidneys with autologous blood (SMP/NMP), then reperfusion with stressed blood at 37° C.; design: species or system Pigs
# Procedure: Pigs were tranquilized prior to transport to the Canadian Surgical Technologies & Advanced Robotics facility (CSTAR, University Hospital, London, Canada). Upon arrival at CSTAR, the animals were prepared for surgery as per SOP. A midline incision was used to expose the kidneys. The right and left kidneys with their ureters were dissected free from the retro peritoneum while leaving the blood supply to the ureter intact and then the ureter was divided. The renal vascular pedicles were left as long as possible by freeing the renal artery and vein up to the aorta and vena cava. The pedicles were clamped for 30 minutes to induce warm ischemia in the donor organs following intravenous infusion of 3000 units of heparin. The injury inflicted is likely greater than that of conventional DCD kidneys after withdrawal of life support as the blood supply is cutoff completely by clamping, which is more harmful than the gradual ischemic injury that occurs during cardiac death. Subsequently, nephrectomies of the left and right kidney were performed and the donor animal was euthanized. […]
# The kidneys were randomly assigned to one of four preservation treatments. […] Blood, urine and tissue samples were collected and analyzed as described in the next subsection.
# Blood and urine samples were collected hourly during the 4 h preservation perfusion with non-stressed blood and during the 4 h reperfusion with stressed blood to evaluate graft function over time. Hourly urine output was recorded, and total urine samples were also collected from both perfusion periods. Pictures of the kidney, urine bags and blood flow and pressure readings were taken hourly. […] During the perfusion periods, we closely monitored pump parameters (flow and pressure) to ensure optimal graft function. […] The total TUNEL+ area (%) was quantified for 10 random fields of view for 2 kidney samples per treatment group using ImageJ software v 1.50 (National Institutes of Health, USA). The total tubular area and TUNEL+ tubular area, used to calculate the TUNEL+ area (%), were determined by adjusting the brightness and saturation thresholds. […]
# DCD porcine kidneys [2] = assay: Ex vivo subnormothermic perfusion of DCD porcine kidneys with Hemopure® at 21° C. followed by blood-free reperfusion at 37° C.; design: species or system Pigs; conditions: for tissue oxygenation during preservation: 21° C., vs SCS (FIG. 4A); for urine output during preservation: 4 h perfusion at 21° C., vs Hemopure® alone (FIG. 3A)
# Source text: Pigs weighing 55-65 kg were used for this study. The animals were maintained in accordance with the Committee on the Care and Use of Laboratory Animals appointed by the National Research Council. The animals were housed at the animal facility in the West Valley Building, which is managed by the Animal Care and Veterinary Services Department at The University of Western Ontario. The experimental protocol and housing conditions followed the guidelines of the university's Animal Care Committee and the Canadian Council on Animal Care.
# Pigs were tranquilized prior to transport to the Canadian Surgical Technologies & Advanced Robotics facility (CSTAR, University Hospital, London, Canada). Upon arrival at CSTAR, the animals were prepared for surgery as per SOP. A midline incision was used to expose the kidneys. The right and left kidneys with their ureters were dissected free from the retro peritoneum while leaving the blood supply to the ureter intact and then the ureter was divided. The renal vascular pedicles were left as long as possible by freeing the renal artery and vein up to the aorta and vena cava. The pedicles were clamped for 30 minutes to induce warm ischemia in the donor organs following intravenous infusion of 10000 units of heparin. The injury inflicted is likely greater than that of conventional DCD kidneys after withdrawal of life support as the blood supply is cutoff completely by clamping, which is more harmful than the gradual ischemic injury that occurs during cardiac death. Subsequently, nephrectomies of the left and right kidney were performed and the donor animal was euthanized. All the surgeries were performed by transplant fellows at University Hospital, London, Ontario, Canada.
# The kidneys were randomly assigned to one of five preservation treatments. The first group of kidneys were flushed with and stored in HTK solution on ice for 4 h (SCS), which reflects the current clinical standard of care for organ preservation. The second group of kidneys were flushed with HTK solution and treated to 4 h of subnormothermic perfusion at 21° C. with Hemopure®. The third group of kidneys were flushed with HTK solution supplemented with 200 nM AP39 and treated to 4 h of subnormothermic perfusion at 21° C. with Hemopure® supplemented with 200 nM AP39. The fourth group of kidneys were flushed with HTK solution supplemented with 1 μM AP39 and treated to 4 h of subnormothermic perfusion at 21° C. with Hemopure® supplemented with 1 μM AP39. The fifth group of kidneys were flushed with HTK solution supplemented with 150 μM STS and treated to 4 h of subnormothermic perfusion at 21° C. with Hemopure® supplemented with 150 μM STS. After the 4 h preservation period, all kidneys were perfused with Hemopure® for 4 h at 37° C. with nutrients to simulate reperfusion after renal transplantation. The kidneys were perfused using an ex vivo perfusion apparatus (FIG. 4). The perfusion pressure was maintained at 50 mmHg. Hemopure® samples were analyzed hourly. The perfusate was oxygenated using an external mixed air supply (35% O2, 2 L/min). After reperfusion with stressed blood, kidneys were bivalved sagittally. One half was stored at −80° C. for mechanistic analyses and the other half was stored in formalin for histopathological analyses.
# Hemopure® and urine samples were collected hourly during the 4 h preservation perfusion and during the 4 h reperfusion to evaluate graft function over time. Electrolyte levels, lactate levels and gas levels in the perfusate were measured hourly using the iSTAT point-of-care testing system. Hourly urine output was recorded, and total urine samples were also collected from both perfusion periods. Pictures of the kidney, urine bags and flow and pressure readings were taken hourly. Tissue oxygenation was also measured hourly. During both perfusion periods, we closely monitored pump parameters (flow and pressure) to ensure optimal graft function. […]
# donor kidneys = assay: Static cold storage (4° C.) of donor kidneys in UW solution supplemented with AP39; conditions: AP39 added to UW / cold preservation solution, applicant's earlier work
# [3] = system: oxidatively stressed endothelial cells; conditions: including protection against oxidative mitochondrial DNA damage; cited from earlier work
# kidney = conditions: AP39 supplementation of UW solution, 21° C.; cited from earlier work
# [4] = 500 ppm; cited from earlier work
structure (smiles),measurement,setting,value
O=C(CCCCCCCCC[P+](c1ccccc1)(c1ccccc1)c1ccccc1)Oc1ccc(-c2cc(=S)ss2)cc1.[Br-] [AP39],urine output during 4 h of preservation,"DCD porcine kidneys [1]; 200 nM AP39 in non-stressed blood at 21° C. (SMP-AP39-21C), vs SMP-21C and NMP-37C (FIG. 9A)",significantly higher
same,graft function,"DCD porcine kidneys [1]; AP39-supplemented blood at 21° C., vs cold storage in UW and perfusion with only blood at 21° C. and 37° C.",improves graft function
same,urine output during 4 h of reperfusion with stressed blood,"DCD porcine kidneys [1]; preserved with SMP-AP39-21C, vs SCS-4C, SMP-21C, NMP-37C (FIG. 9B)",significantly higher
same,tissue oxygenation during preservation,DCD porcine kidneys [2]; 200 nM AP39 in Hemopure®,higher tissue oxygenation than SCS
same,urine output during preservation,DCD porcine kidneys [2]; 200 nM AP39 in Hemopure®,significantly higher
same,apoptotic tissue injury (TUNEL score),"DCD porcine kidneys [2]; 200 nM AP39 in Hemopure®, after reperfusion, vs Hemopure® and Hemopure®+1 μM AP39 (FIGS. 6A-6F)",reduced apoptotic tissue injury
same,urine output during preservation,DCD porcine kidneys [2]; 1 μM AP39 in Hemopure®,significantly higher
same,urine output during reperfusion,"DCD porcine kidneys [2]; preserved with 200 nM AP39 in Hemopure® at 21° C., 4 h reperfusion at 37° C., vs Hemopure® kidneys (FIG. 3B)",significantly higher
same,graft outcomes,donor kidneys,improves renal graft outcomes
same,protective effect under oxidative stress conditions,[3],cryoprotective effect
same,kidney preservation,kidney,improves kidney preservation
"S [H2S, Hydrogen sulfide]",effect of exposure to extreme levels,[4],sudden collapse and unconsciousness
"O.O.O.O.O.O=S([O-])([O-])=S.[Na+].[Na+] [STS, sodium thiosulfate (STS) pentahydrate]",tissue oxygenation during preservation,DCD porcine kidneys [2]; 150 μM STS in Hemopure®,higher tissue oxygenation than SCS
same,urine output during preservation,DCD porcine kidneys [2]; 150 μM STS in Hemopure®,significantly higher
